# Measurements reported in PMC8319603, “Developing C2-Aroyl Indoles as Novel Inhibitors of IDO1 and Understanding Their Mechanism of Inhibition via Mass Spectroscopy, QM/MM Calculations and Molecular Dynamics Simulation” (Frontiers in Chemistry, 2021).
# “And” between values parts separate entries of the source, which are not always exact repeats. Identical values can stand only once.
# What was measured:
# [1] = biological target: T1, hIDO1 (ferric-IDO1 and deoxy ferrous-IDO1) (Homo sapiens, UniProt P14902); experiment: UV-Vis absorption study of ligand binding to IDO1 (Soret band); settings: ligand 25 µM, IDO1 1 µM, pH 6.5; 414 nm without ligand
# T1 construct: purchased Biovision P1096
# T1 sequence (P14902 whole entry): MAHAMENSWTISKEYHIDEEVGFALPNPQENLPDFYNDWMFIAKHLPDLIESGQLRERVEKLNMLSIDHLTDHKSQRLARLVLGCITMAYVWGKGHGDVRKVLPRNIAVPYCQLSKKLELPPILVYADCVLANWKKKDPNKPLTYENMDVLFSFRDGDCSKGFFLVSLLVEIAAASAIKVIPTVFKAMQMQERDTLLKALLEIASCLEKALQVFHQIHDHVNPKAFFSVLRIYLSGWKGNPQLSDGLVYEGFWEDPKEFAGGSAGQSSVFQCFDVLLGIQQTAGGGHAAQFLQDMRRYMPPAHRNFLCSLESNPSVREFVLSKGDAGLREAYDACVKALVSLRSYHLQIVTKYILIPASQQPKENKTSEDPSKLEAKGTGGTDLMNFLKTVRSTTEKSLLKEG
# Protocol: All the measurements of binding of compound and enzyme were recorded at room temperature using an Agilent Cary 8454 UV-Vis diode array spectrophotometer with 1 cm light path. The experiments were performed in 50 mM potassium phosphate buffer pH- 6.5 with IDO1 protein concentration of 1 µM and compound concentration of 25 µM was incubate for 3 h at 37°C. The deoxy-form of protein was prepared by pre-purged with nitrogen gas and adding […] (∼5 fold excess) in protein with potassium phosphate system.
# [2] = Log D determination (octanol/buffer); type: physicochemical; settings: phosphate buffer at pH 7.4
# From the text: For the DMPK studies of the compound 8a-d we used rat as well as human plasmas. Rat plasma was purchased from Hylasco Biotechnology Pvt. Ltd.™ Hyderabad, India. We have not performed any in vivo experiments for this manuscript neither for animals nor for humans. […] Also please note the blood plasma was obtained from the blood of Dr Srinivas R Maddi, who donated it and is the co-author of this article. The DMPK studies were supplemented by kinetic solubility, Log p and Log D determinations, PAMPA permeability, Metabolic and Plasma stability in rat and human, and finally the plasma folding in rat and human. A thorough discussion of each step is mentioned in the supplementary information.
# 20 µL of IDO1/TDO2 protein (1µg/ml concentration) was added and incubates for 10 min. After that 20 µL of 2 mM L-tryptophan was added and then treated with different test compounds concentration (10 µM, 5 µM, 1 µM, 500 nM, 250 nM). The plate was then sealed well for 2hr incubation process at 37°C. […] The 100 µL of supernatant was transferred in fresh 96 well plate and treated with 100 µL of freshly prepared 2% Ehlrich reagent which was then analyzed by absorbance plate reader at 492 nm to measure the extent of kynurenine formation. […] The IC50 values were calculated in triplicate by using GraphPadPrism Software (GraphPadPrism. Version 5.01 program).22, 23 […]
# Log P determination: The partition coefficient was determined by adding compounds to 2 mL deep well plate containing Octanol/water mixture and vortexed the plate for 2 hours at 1200 rpm on a plate shaker. […] Octanol and buffer layers were analysed by HPLC -UV by adjusting the needle height for each Octanol and buffer and the amount of compound distributed i nto each phase was calculated
# Log D determination: The distribution coefficient was determined by adding compounds to 2 mL deep well plate containing Octanol/Buffer mixture and vortexed the plate for 2 hours at 1200 rpm on a plate shaker. […]
# adjusting the needle height for each Octanol and buffer and the amount of compound distributed into each phase was calculated. […]
# [3] = biological target: T2, indolamine-2, 3-dioxygenase one (IDO1) (Homo sapiens, UniProt P14902); experiment: Inhibition kinetics (Lineweaver-Burk plots); type: biochemical; settings: L-tryptophan 1–4 mM, inhibitor 0–1.5 µM; with respect to L-tryptophan
# T2 construct: purchased Biovision P1096
# T2 sequence (P14902 whole entry): as above
# Protocol: The IDO1 activity assay was performed to measure the formation of […] by absorbance plate reader at 492 nm. The mode of inhibition of the screened compounds was determined from the Lineweaver-Burk plots, which are the double reciprocal plots of enzyme reaction velocities (1/V) vs. substrate concentrations (1/[S]), where V and [S] represent the initial rate of enzymatic reaction and L-tryptophan concentration respectively.
Structure (SMILES),Soret band of deoxy ferrous-IDO1 in presence of ligand [1],logD [2],Mode of inhibition of IDO1 [3]
CC(=O)NCCc1c(C(=O)c2cc(C(F)(F)F)cc(C(F)(F)F)c2)[nH]c2ccccc12 [8a],407 nm and 430 nm,1.32,
CC(=O)NCCc1c(C(=O)c2ccc([N+](=O)[O-])cc2)[nH]c2ccccc12 [8d],407 nm,1.51,competitive
COC(=O)NCCc1c(C(=O)c2ccccc2)[nH]c2ccccc12 [8e],407 nm,2.95,
